In US7022721B1, “Method and composition for rejuvenating cells, tissues, organs, hair and nails” (priority 2001, dated 2006):
Values joined by “and” are separate entries in the source; they are usually repeats but may differ in a detail not shown here. Equal entries are not always repeated. Structures can show the parent of a compound that is named as a salt.

Legend:
[1] = system: Non-enzymatically browned BSA (AGE-BSA) coupled to Collagen Type-I coated plates; assay: Assay of Uncoupling Activity on non-enzymatically browned BSA coupled to collagen coated plates (ELISA); format: biochemical; conditions: for % uncoupling at 10 mM, 2 days / % uncoupling at 20 mM, 1 day: sugar-mediated coupling of albumen to collagen; for % uncoupling at 5 mM, 1 day: naphthothiazolium test compounds
Protocol: Assay of Uncoupling Activity on Non-Enzymattically Browned BSA Coupled to Collagen Coated Plates
Equipment, Reagents, and Other Materials
Mix equal volume of BSA (50 mg/ml in 1×PBS) and glucose (0.5 M in PBS); keep the solution (after filtered through a 0.22 µm filter and placed in a capped bottle) in a 37° C. incubator for 5 weeks.
Remove an aliquot of the solution and dialyze against 500-fold volume of PBS, with 4 changes of buffer within 2 days. Collect the solution, as AGE-BSA, from dialysis bag and determine the protein concentration. […] During this hour, • Rinse the plate washer with autoclaved dH2O and then flush 3 times with PBS-Tween washing buffer containing 0.05% of Tween-20. • Dilute AGE-BSA in 1×PBS to 0.03 g/l. […] (Record the hours of incubation.) • In the meantime, run maintenance program (Overnight rinse/soak) on the plate washer using autoclaved distilled H2O. • After incubation, flush the plate washer 3 times with PBS-Tween washing buffer. • Wash the plate 4 times with 1×PBS buffers containing 0.2% Tween-20. • Wash 6 more times with PBS-0.05% Tween washing buffer in two directions, 3 times/direction. • Prepare 1:8000 dilution (in 1×PBS) of anti-BSA antibody (rabbit IgG-HRP) • Add 50 1 of diluted antibody to the wells, incubate at room temperature for 30 min. • Wash 8 times with PBS-0.05% Tween washing buffer in two directions, 4 times/direction. • Add 100 1 of TMB substrate solution to the wells; incubate at RT for 15 min. • Stop the reaction by adding 100 1 of 2 M H2SO4. • Read absorbance at 450 nm in an ELISA plate reader. • Plot and analyze data.

[2] = Hair stress vs. strain relationship (stiffness) before and after treatment
Source text: Methodology for Determination of Hair Stress vs. Strain Relationship (Stiffness).
The distensibility (i.e, elasticity, rigidity, shear, tensile strength, compression, etc.) of hair, nails, tendons, etc. can be easily determined using widely available commercial devices, such as manufactured by Instron. Alternatively, other test methods known to a practitioner of the art may be employed.
The test assay for determining whether hair has been “rejuvenated” for the present invention is the following. Individual scalp hairs were cemented into the ends of glass capillary tubes such that several centimeters of the shaft protruded from the end. This hair was then trimmed to extend 18 mm from the end of the tube. […] Thus, this determination of stress vs strain of bending assessed elasticity, compressibility, and shear of each hair shaft. Each hair served as its own control, with baseline and post-treatment properties assessed and directly compared.
A 1 mm thick plate with a 0.5 mm diameter hole drilled through was attached to the surface of an isometric strain gauge. […] The force required to bend each hair a specified distance was determined over a wide range of displacements. […] For purposes of the present invention, the term “rejuvenated” hair shall mean an improvement of at least 20% in the measured values of the treated hair, toward the values seen in young, undamaged hair (i.e. healthy human). […]

For `Cc1csc(C)[n+]1CC(=O)c1ccccc1.[Br-]` [2,4-Dimethyl-3-(2-oxo-2-phenylethyl)thiazolium bromide], the “% uncoupling at 10 mM, 2 days” value ([1]; 10 mM) was 36% and the “% uncoupling at 20 mM, 1 day” value ([1]; 1 day) was 51%.

With `CC(O)c1scc[n+]1CC(=O)O` (stereo not shown) [3-carboxymethyl-2-(1-hydroxyethyl)thiazole] the “% uncoupling at 20 mM, 1 day” value ([1]; 1 day) was 47%.

In the case of `Cc1sc(C(C)O)[n+](CC(=O)c2ccccc2)c1C.[Br-]` (stereo not shown) [4,5-dimethyl-2-(1-hydroxyethyl)-3-(2-oxo-2-phenylethyl)thiazolium bromide], the “% uncoupling at 20 mM, 1 day” value ([1]; 1 day) is reported as 45% and the melting point is reported as 174 to 176 °C.

With `CC(O)c1scc[n+]1CC(=O)N1CCCC1.[Cl-]` (stereo not shown) [2-(1-hydroxyethyl)-3-[2-oxo-2-(1-pyrrolidinyl)ethyl]thiazolium chloride] the “% uncoupling at 10 mM, 2 days” value ([1]; 10 mM) was 32%.

With `CCc1scc(C)[n+]1CC(=O)c1ccccc1.[Br-]` [2-Ethyl-4-methyl-3-(2-oxo-2-phenylethyl)thiazolium bromide] the “% uncoupling at 20 mM, 1 day” value ([1]; 1 day) was 57%.

For `CC1OC(=O)C[n+]2ccsc21.[Br-]` (stereo not shown) [5,6-Dihydro-8-methyl-6-oxo-8H-thiazolo[2,3-c](1,4)oxazin-4-ium bromide], the “% uncoupling, 1 day (footnote a: at 30 mM)” value ([1]; 1 day) was 36^a % and the melting point was 214 to 215.5 °C.

In the case of `CC(O)c1scc[n+]1CC(=O)c1ccccc1.[Br-]` (stereo not shown) [3-(2-Oxo-2-phenylethyl)-2-(1-hydroxyethyl)thiazolium bromide], the “% uncoupling at 10 mM, 2 days” value ([1]; 10 mM) is reported as 54%.

With `Cc1nc2c(c[n+]1CC(=O)c1ccccc1)CNC(=O)N2.[Br-]` [2-Methyl-3-(2-oxo-2-phenylethyl)-7-oxo-5,6,7,8-tetrahydropyrimidino [4,5-d]pyrimidin-3-ium bromide] the “% uncoupling, 1 day (footnote a: at 30 mM)” value ([1]; 1 day) was 22^a %.

For `O=C(Cn1cc[n+](CC(=O)c2ccccc2)c1)c1ccccc1.[Br-]` [1,3-bis(2-oxo-2-phenylethyl)imidazolium bromide], the “% uncoupling, 1 day (footnote b: at 10 mM)” value ([1]; 10 mM, 1 day) was 25^b %.

In the case of `Cc1sc[n+](CC(=O)c2ccccc2)c1C.[Cl-]` [4,5-Dimethyl-3-(2-oxo-2-phenylethyl)thiazolium chloride, reference compound], the “% uncoupling at 10 mM, 2 days” value ([1]; 10 mM) is reported as 52% and the “% uncoupling at 20 mM, 1 day” value ([1]; 1 day) is reported as 39%.

For `CC(OC(=O)c1ccccc1)c1scc[n+]1CC(=O)c1ccccc1.[Br-]` (stereo not shown) [3-(2-Oxo-2-phenylethyl)-2-(1-benzoyloxyethyl)thiazolium bromide], the “% uncoupling at 20 mM, 1 day” value ([1]; 1 day) was 68%.

For `CC(=O)OC(C)c1scc[n+]1CC(=O)N1CCCC1.[Br-]` (stereo not shown) [3-[2-Oxo-2-(1-pyrrolidinyl)ethyl]-2-(1-acetoxyethyl)thiazolium bromide], the “% uncoupling at 20 mM, 1 day” value ([1]; 1 day) was 46%.

For `N#CCc1cccc[n+]1CC(=O)N1CCCC1.[Br-]` [1-[2-(1-pyrrolidinyl)-2-oxoethyl]-2-(cyanomethyl)pyridinium bromide], the “% uncoupling at 10 mM, 2 days” value ([1]; 10 mM) was 68%.

In the case of `Cc1sc2[n+](c1C)C=C(c1ccccc1)OC2C.[Br-]` (stereo not shown) [2,3,8-Trimethyl-6-phenyl-8H-thiazolo[2,3-c](1,4)oxazin-4-ium bromide], the “% uncoupling at 20 mM, 1 day” value ([1]; 1 day) is reported as 34%.

In the case of `CC(=O)OC(C)c1scc[n+]1CC(=O)c1ccccc1.[Br-]` (stereo not shown) [3-[2-Oxo-2-phenylethyl]-2-(1-acetoxyethyl)thiazolium bromide], the “% uncoupling at 20 mM, 1 day” value ([1]; 1 day) is reported as 52%.

In the case of `Cc1c(O)c2ccccc2c2nc(NCCCN3CCOCC3)sc12` [4-Methyl-2-[[3-(4-morpholino)propyl]amino]naphtho[1,2-d]thiazol-5-ol dihydrochloride], the “% uncoupling at 5 mM, 1 day” value ([1]; 1 day) is reported as 36%.

For `O=C(C[n+]1ccccc1Cc1ccccc1)c1ccccc1.[Br-]` [2-benzyl-1-(2-oxo-2-phenylethyl)pyridinium bromide], the “% uncoupling at 20 mM, 1 day” value ([1]; 1 day) was 54%.

For `Cc1c(O)c2ccccc2c2c1sc(NC1CCCCC1)[n+]2CCCN1CCOCC1` [2-(Cyclohexylimino)-1,2-dihydro-4-methyl-1-[3-(4-morpholino)propyl]naphtho[1,2-d]thiazol-5-ol dihydrochloride], the “% uncoupling at 5 mM, 1 day” value ([1]; 1 day) was 22%.

With `Cc1c(O)c2ccccc2c2c1sc(NC1CCCCC1)[n+]2CCCN1CCN(C)CC1.[Cl-]` [2-(Cyclohexylimino)-1,2-dihydro-4-methyl-1-[3-(4-methyl-1-piperazinyl)propyl]naphtho[1,2-d]thiazol-5-ol trihydrochloride] the “% uncoupling at 5 mM, 1 day” value ([1]; 1 day) was 21%.

`N#CCc1cccc[n+]1CC(=O)N1CCCC1.[Cl-]` showed a melting point of 130 to 132 °C.

In the case of `Cc1c(O)c2ccccc2c2c1sc(=NC(C)C)n2CCCN(C)C.Cl.Cl` [1,2-dihydro-1-[3-(dimethylamino)propyl]-4-methyl-2-[(1-methylethyl)imino]naphtho[1,2-d]thiazol-5-ol dihydrochloride], the “% uncoupling at 5 mM, 1 day” value ([1]; 1 day) is reported as 19%.

With `CCN=c1sc2c(C)c(O)c3ccccc3c2n1CC.Cl` [1-ethyl-2-(ethylimino)-1,2-dihydro-4-methylnaphtho[1,2-d]thiazol-5-ol monohydrochloride] the “stiffness of hair after treatment” value ([2]; FIG. 1) was “decreases the stiffness of hair”, the “resulting stress less than before treatment (hair stiffness)” value ([2]; hair immersed in 10 mM solution for 15 minutes, strain greater than about 0.06) was “about 50%” and the “% uncoupling at 5 mM, 1 day” value ([1]; 1 day, monohydrochloride) was 59% and 58%.
